Test in all cases: relative viability (nuclei count vs DMSO), 5 days (fraction); higher = more cells survive
Compound in the test “Metformin + Decitabine”: CN(C)C(=N)NC(=N)N [Metformin] + Nc1ncn([C@H]2C[C@H](O)[C@@H](CO)O2)c(=O)n1 [Decitabine] (partner 2 µM)
In a few lines: (§1)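 Lung cancer cell lines in 1536-well plates were dosed by pin tool the day after seeding, either with one drug alone or with a fixed anchor-drug dose plus five library-drug doses (not always all listed) in √10 steps. After 5 days, cells were fixed and their nuclei stained in one step (final 0.05% Triton X-100, 1% formaldehyde, 1 ug/ml Hoechst), then counted on 4× images. Relative viability is the nuclei count in treated wells divided by that in vehicle wells. Values are medians of duplicate plates.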

Compound in the test “Metformin + Vorinostat”: CN(C)C(=N)NC(=N)N [Metformin] + O=C(CCCCCCC(=O)Nc1ccccc1)NO [Vorinostat] (partner 1 µM)
In short, it runs like this:
as §1

Compound in the test “Apatinib + Alpelisib”: N#CC1(c2ccc(NC(=O)c3cccnc3NCc3ccncc3)cc2)CCCC1 [Apatinib] + Cc1nc(NC(=O)N2CCC[C@H]2C(N)=O)sc1-c1ccnc(C(C)(C)C(F)(F)F)c1 [Alpelisib] (partner 2 µM)
In short, it runs like this:
as §1

Compound in the test “Apatinib + Lapatinib”: N#CC1(c2ccc(NC(=O)c3cccnc3NCc3ccncc3)cc2)CCCC1 [Apatinib] + CS(=O)(=O)CCNCc1ccc(-c2ccc3ncnc(Nc4ccc(OCc5cccc(F)c5)c(Cl)c4)c3c2)o1 [Lapatinib] (partner 2 µM)
In a few lines:
as §1

Take NCI-H522: the relative viability with Metformin + Decitabine (first compound 10 µM) was determined as 0.659; with Metformin + Decitabine (first compound 31.62 µM), 0.599; with Metformin + Decitabine (first compound 100 µM), 0.679; in the test with Metformin + Decitabine (first compound 316.23 µM) it was 0.648; with Metformin + Decitabine (first compound 1000 µM), 0.7; with Metformin + Vorinostat (first compound 10 µM), 1.15. For the same cell line, the relative viability in the test with Metformin + Vorinostat (first compound 31.62 µM) worked out at 1.11; with Metformin + Vorinostat (first compound 100 µM) it was 0.923; with Metformin + Vorinostat (first compound 316.23 µM) it was 0.99; with Metformin + Vorinostat (first compound 1000 µM) it was 1.03.

Turning to LCLC-103H, the relative viability with Apatinib + Alpelisib (first compound 0.08 µM) amounted to 0.971; with Apatinib + Alpelisib (first compound 0.253 µM), 0.87; in the test with Apatinib + Alpelisib (first compound 0.8 µM), 1.02; with Apatinib + Alpelisib (first compound 2.53 µM) it was 0.918; with Apatinib + Alpelisib (first compound 8 µM), 0.911; with Metformin + Decitabine (first compound 10 µM), 0.72. Further, the relative viability in the test with Metformin + Decitabine (first compound 31.62 µM) came to 0.738; with Metformin + Decitabine (first compound 100 µM), 0.714; in the test with Metformin + Decitabine (first compound 316.23 µM) it was 0.714; with Metformin + Decitabine (first compound 1000 µM), 0.788; with Metformin + Vorinostat (first compound 10 µM), 0.569; with Metformin + Vorinostat (first compound 31.62 µM), 0.79. Further, the relative viability with Metformin + Vorinostat (first compound 100 µM) was 0.795; with Metformin + Vorinostat (first compound 316.23 µM), 0.788; with Metformin + Vorinostat (first compound 1000 µM), 0.873.

Consider NCI-H1650, for which the relative viability with Apatinib + Lapatinib (first compound 0.08 µM) turned out to be 0.626; in the test with Apatinib + Lapatinib (first compound 0.253 µM) it was 0.796; in the test with Apatinib + Lapatinib (first compound 0.8 µM), 0.908; in the test with Apatinib + Lapatinib (first compound 2.53 µM), 0.756; with Apatinib + Lapatinib (first compound 8 µM), 0.689; with Metformin + Decitabine (first compound 10 µM), 0.326. Moreover, the relative viability with Metformin + Decitabine (first compound 31.62 µM) was 0.343; in the test with Metformin + Decitabine (first compound 100 µM), 0.317; with Metformin + Decitabine (first compound 316.23 µM), 0.402; with Metformin + Decitabine (first compound 1000 µM), 0.389; with Metformin + Vorinostat (first compound 10 µM) it was 0.492; with Metformin + Vorinostat (first compound 31.62 µM), 0.675. Also, the relative viability is 0.799 with Metformin + Vorinostat (first compound 100 µM), 0.529 with Metformin + Vorinostat (first compound 316.23 µM) and 0.52 in the test with Metformin + Vorinostat (first compound 1000 µM).

On to NCI-H1792, for which the relative viability came to 0.794 with Apatinib + Alpelisib (first compound 0.08 µM); 0.743 with Apatinib + Alpelisib (first compound 0.253 µM); 0.68 in the test with Apatinib + Alpelisib (first compound 0.8 µM); 0.641 with Apatinib + Alpelisib (first compound 2.53 µM); 0.553 with Apatinib + Alpelisib (first compound 8 µM); 0.873 with Apatinib + Lapatinib (first compound 0.08 µM). The relative viability with Apatinib + Lapatinib (first compound 0.253 µM) was 0.877; with Apatinib + Lapatinib (first compound 0.8 µM), 0.855; with Apatinib + Lapatinib (first compound 2.53 µM), 0.798; with Apatinib + Lapatinib (first compound 8 µM), 0.844; with Metformin + Decitabine (first compound 10 µM), 0.449; with Metformin + Decitabine (first compound 31.62 µM), 0.428. Further, the relative viability in the test with Metformin + Decitabine (first compound 100 µM) came out at 0.482; with Metformin + Decitabine (first compound 316.23 µM) it was 0.386; with Metformin + Decitabine (first compound 1000 µM) it was 0.496.

With Calu-6, the relative viability came out at 1.02 with Apatinib + Alpelisib (first compound 0.08 µM); 1.12 in the test with Apatinib + Alpelisib (first compound 0.253 µM); 0.956 with Apatinib + Alpelisib (first compound 0.8 µM); 0.895 in the test with Apatinib + Alpelisib (first compound 2.53 µM); 0.73 with Apatinib + Alpelisib (first compound 8 µM); 1.13 with Apatinib + Lapatinib (first compound 0.08 µM). Besides, the relative viability worked out at 1.1 with Apatinib + Lapatinib (first compound 0.253 µM), 0.988 with Apatinib + Lapatinib (first compound 0.8 µM), 0.919 with Apatinib + Lapatinib (first compound 2.53 µM) and 0.789 with Apatinib + Lapatinib (first compound 8 µM).

In the case of SW 900, the relative viability was determined as 0.41 with Metformin + Decitabine (first compound 10 µM); 0.389 with Metformin + Decitabine (first compound 31.62 µM); 0.412 with Metformin + Decitabine (first compound 316.23 µM); 0.492 with Metformin + Decitabine (first compound 1000 µM); 0.548 with Metformin + Vorinostat (first compound 10 µM); 0.765 with Metformin + Vorinostat (first compound 31.62 µM). For the same cell line, the relative viability with Metformin + Vorinostat (first compound 316.23 µM) was 0.457; in the test with Metformin + Vorinostat (first compound 1000 µM) it was 0.682.

On to NCI-H1703, for which the relative viability was 0.289 with Apatinib + Alpelisib (first compound 0.08 µM); 0.252 in the test with Apatinib + Alpelisib (first compound 0.253 µM); 0.25 with Apatinib + Alpelisib (first compound 0.8 µM); 0.175 with Apatinib + Alpelisib (first compound 2.53 µM); 0.17 with Apatinib + Alpelisib (first compound 8 µM); 1.01 with Apatinib + Lapatinib (first compound 0.08 µM). For the same cell line, the relative viability in the test with Apatinib + Lapatinib (first compound 0.253 µM) amounted to 0.685; with Apatinib + Lapatinib (first compound 0.8 µM), 0.291; with Apatinib + Lapatinib (first compound 2.53 µM) it was 0.228; in the test with Apatinib + Lapatinib (first compound 8 µM) it was 0.276.

On to NCI-H2342, for which the relative viability is 0.812 with Metformin + Decitabine (first compound 31.62 µM); 0.708 in the test with Metformin + Decitabine (first compound 100 µM); 0.714 with Metformin + Decitabine (first compound 316.23 µM); 0.693 with Metformin + Decitabine (first compound 1000 µM); 0.868 with Metformin + Vorinostat (first compound 31.62 µM); 0.837 with Metformin + Vorinostat (first compound 100 µM). The relative viability with Metformin + Vorinostat (first compound 316.23 µM) was 0.745; in the test with Metformin + Vorinostat (first compound 1000 µM) it was 0.853.

On to NCI-H1563, for which the relative viability with Apatinib + Alpelisib (first compound 0.08 µM) was found to be 0.967; with Apatinib + Alpelisib (first compound 0.253 µM), 0.982; with Apatinib + Alpelisib (first compound 0.8 µM), 0.929; with Apatinib + Alpelisib (first compound 2.53 µM), 0.93; with Apatinib + Alpelisib (first compound 8 µM), 0.804; with Apatinib + Lapatinib (first compound 0.08 µM) it was 0.682. Moreover, the relative viability with Apatinib + Lapatinib (first compound 0.253 µM) worked out at 1.03; with Apatinib + Lapatinib (first compound 0.8 µM) it was 0.943; with Apatinib + Lapatinib (first compound 2.53 µM), 0.891; in the test with Apatinib + Lapatinib (first compound 8 µM), 0.834.

Regarding ChaGo-K-1, the relative viability is 0.524 with Metformin + Decitabine (first compound 10 µM); 0.535 with Metformin + Decitabine (first compound 31.62 µM); 0.512 with Metformin + Decitabine (first compound 100 µM); 0.481 with Metformin + Decitabine (first compound 316.23 µM); 0.509 with Metformin + Decitabine (first compound 1000 µM); 0.663 with Metformin + Vorinostat (first compound 10 µM). Besides, the relative viability in the test with Metformin + Vorinostat (first compound 31.62 µM) turned out to be 0.777; with Metformin + Vorinostat (first compound 100 µM) it was 0.751; with Metformin + Vorinostat (first compound 316.23 µM), 0.667; with Metformin + Vorinostat (first compound 1000 µM), 0.723.

Turning to IA-LM, the relative viability with Apatinib + Alpelisib (first compound 0.08 µM) was 0.793; in the test with Apatinib + Alpelisib (first compound 0.253 µM) it was 0.673; with Apatinib + Alpelisib (first compound 0.8 µM) it was 0.665; in the test with Apatinib + Alpelisib (first compound 2.53 µM), 0.558; in the test with Apatinib + Alpelisib (first compound 8 µM), 0.337; with Apatinib + Lapatinib (first compound 0.08 µM) it was 0.814. The relative viability in the test with Apatinib + Lapatinib (first compound 0.253 µM) was found to be 0.677; with Apatinib + Lapatinib (first compound 0.8 µM), 0.772; with Apatinib + Lapatinib (first compound 2.53 µM), 0.6; in the test with Apatinib + Lapatinib (first compound 8 µM), 0.305; with Metformin + Vorinostat (first compound 10 µM) it was 1.01; with Metformin + Vorinostat (first compound 31.62 µM), 1.04. The relative viability stood at 1.03 with Metformin + Vorinostat (first compound 100 µM), 0.901 with Metformin + Vorinostat (first compound 316.23 µM) and 0.962 in the test with Metformin + Vorinostat (first compound 1000 µM).

Source of the values: the supplement of paper PMC10307832.
